# Experimental data reported in US12628829B2, “Compositions comprising recombianant Bacillus cells and an insecticide” (BASF CORPORATION, priority 2014, dated 2026).
# Test system: Maize
# Assay: Plant growth promotion, maize whole plant biomass after soil drench
# Assay type: in vivo
# Experimental: For instance, the formula and analysis can be applied to an evaluation of plant growth promotion. Such an assay is evaluated several days after the applications to plants. 100% means plant weight which corresponds to that of the untreated control plant. Efficacy means in this case the additional % of plant weight in comparison to that of the untreated control.
# Experiments were conducted to analyze efficacy of a combination of flupyradifurone and a fermentation product of recombinant Bacillus thuringiensis cells expressing phospholipase C (“BEPC”). Maize seeds were grown in sterile mixture of synthetic media and sand in small three-inch square pots on light racks in a plant growth room at 25-28° C. and 50% humidity for about 14 days. Two seeds were planted in each pot. At planting, the growing media in each pot was drenched with the treatments described below. After 14 days, plants were measured for whole plant biomass. In the tables below, UTC refers to untreated control. “Calculated” refers to the expected effect calculated using the above-described Colby equation and “Efficacy” refers to the actual effect observed.
# The SIVANTO® product, which contains flupyradifurone as its active ingredient (17.09% flupyradifurone), was diluted in 50 mL water and the diluted solution was used to drench the growing media. The application rate shown below refers to the amount of active ingredient (i.e., flupyradifurone) applied to the growing media.
# A recombinant Bacillus cereus family member (Bacillus thuringiensis BT013A) expressing phospholipase C on its exosporium (BEPC) was generated as follows. […]
# To obtain whole broth cultures of BEPC, 15 ml conicals containing brain heart infusion media (BHI) were inoculated with BEPC and grown for 7-8 hours at around 30° C. at a shaker setting of 300 rpm. […] After approximately 2 days of incubation, when sporulation was at least 95% completed, the culture broth was harvested and colony forming units calculated. […]
smiles,measurement,setting,value
"O=C1C=C(N(Cc2ccc(Cl)nc2)CC(F)F)CO1 [Flupyradifurone, flupyradifurone]",Efficacy %,"actual effect observed: additional % of plant weight versus UTC, 14 days",3%
same,Whole Plant Biomass,"growing media drenched at planting, measured after 14 days, flupyradifurone 1.36 mg/pot, BEPC 7 × 10^8 CFU/pot",3.50 g
same,Found %,"plant weight relative to UTC = 100, drench at planting, 14 days",103%
